According to ChEMBL document CHEMBL1201862, “PubChem BioAssay data set” (2004):
Where a name gives a salt, the structure may show the parent alone. The source made the active and inactive calls.

Tests used:
[1] = molecular target: T1, RNA-binding protein pos-1 (Caenorhabditis elegans, UniProt G5EF15); experiment: inhibitors of POS-1/mex-3 RNA binding, dose response, biochemical, fluorescence polarization (AID 1964);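 further: purified POS-1 fused to maltose binding protein made in E. coli; potency of compounds blocking POS-1 binding to fluorescent RNA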
T1 sequence (G5EF15 whole entry): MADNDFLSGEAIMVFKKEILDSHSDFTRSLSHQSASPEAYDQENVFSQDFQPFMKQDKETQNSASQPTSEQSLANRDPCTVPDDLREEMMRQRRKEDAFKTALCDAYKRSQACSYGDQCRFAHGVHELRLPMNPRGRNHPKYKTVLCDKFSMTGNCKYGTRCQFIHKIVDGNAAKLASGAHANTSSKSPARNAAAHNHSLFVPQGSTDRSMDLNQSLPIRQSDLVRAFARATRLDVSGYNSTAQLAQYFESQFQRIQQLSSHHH

[2] = system: BJ; experiment: cytotoxicity toward BJ-TERT fibroblasts, dose response, cell-based, RAS-independent, luminescence (AID 1933); format: functional; settings: Homo sapiens
[3] = molecular target: T2, Zinc finger protein mex-5 (Caenorhabditis elegans, UniProt Q9XUB2); experiment: MEX-5/TCR-2 RNA interaction inhibitors, dose response, biochemical, C. elegans, fluorescence polarization (AID 1960)
T2 sequence (Q9XUB2 whole entry): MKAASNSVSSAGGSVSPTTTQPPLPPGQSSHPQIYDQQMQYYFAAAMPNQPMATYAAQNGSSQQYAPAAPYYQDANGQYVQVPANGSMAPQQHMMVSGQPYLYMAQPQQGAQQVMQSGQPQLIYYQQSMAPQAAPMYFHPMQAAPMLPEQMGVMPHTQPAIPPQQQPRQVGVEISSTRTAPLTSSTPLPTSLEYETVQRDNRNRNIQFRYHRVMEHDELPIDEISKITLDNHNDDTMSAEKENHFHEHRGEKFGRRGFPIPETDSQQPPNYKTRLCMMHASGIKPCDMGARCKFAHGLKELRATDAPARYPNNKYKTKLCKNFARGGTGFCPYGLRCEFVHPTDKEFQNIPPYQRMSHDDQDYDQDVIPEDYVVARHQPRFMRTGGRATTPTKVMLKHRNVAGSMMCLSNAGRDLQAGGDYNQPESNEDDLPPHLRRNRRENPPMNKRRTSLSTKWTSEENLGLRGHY

[4] = system: BJ; experiment: cells; format: functional, cell-based; settings: Homo sapiens
[5] = system: BJ; experiment: cytotoxicity toward BJ-TERT-LT-ST fibroblasts, dose response, cell-based, RAS-independent, luminescence (AID 1935); format: functional; settings: Homo sapiens;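 further: BJ fibroblasts immortalized with TERT plus LT and ST oncogenes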
[6] = cytotoxicity toward DRD oncogenic fibroblasts, dose response, cell-based, non-viral oncogenic, luminescence (AID 1934); format: functional; settings: Homo sapiens
[7] = molecular target: T3, Replicative DNA helicase DnaB (Mycobacterium tuberculosis, UniProt P9WMR3); experiment: DnaB intein splicing inhibitors, dose response, biochemical, cell-free fluorescence (AID 449749); format: functional
T3 sequence (P9WMR3 whole entry): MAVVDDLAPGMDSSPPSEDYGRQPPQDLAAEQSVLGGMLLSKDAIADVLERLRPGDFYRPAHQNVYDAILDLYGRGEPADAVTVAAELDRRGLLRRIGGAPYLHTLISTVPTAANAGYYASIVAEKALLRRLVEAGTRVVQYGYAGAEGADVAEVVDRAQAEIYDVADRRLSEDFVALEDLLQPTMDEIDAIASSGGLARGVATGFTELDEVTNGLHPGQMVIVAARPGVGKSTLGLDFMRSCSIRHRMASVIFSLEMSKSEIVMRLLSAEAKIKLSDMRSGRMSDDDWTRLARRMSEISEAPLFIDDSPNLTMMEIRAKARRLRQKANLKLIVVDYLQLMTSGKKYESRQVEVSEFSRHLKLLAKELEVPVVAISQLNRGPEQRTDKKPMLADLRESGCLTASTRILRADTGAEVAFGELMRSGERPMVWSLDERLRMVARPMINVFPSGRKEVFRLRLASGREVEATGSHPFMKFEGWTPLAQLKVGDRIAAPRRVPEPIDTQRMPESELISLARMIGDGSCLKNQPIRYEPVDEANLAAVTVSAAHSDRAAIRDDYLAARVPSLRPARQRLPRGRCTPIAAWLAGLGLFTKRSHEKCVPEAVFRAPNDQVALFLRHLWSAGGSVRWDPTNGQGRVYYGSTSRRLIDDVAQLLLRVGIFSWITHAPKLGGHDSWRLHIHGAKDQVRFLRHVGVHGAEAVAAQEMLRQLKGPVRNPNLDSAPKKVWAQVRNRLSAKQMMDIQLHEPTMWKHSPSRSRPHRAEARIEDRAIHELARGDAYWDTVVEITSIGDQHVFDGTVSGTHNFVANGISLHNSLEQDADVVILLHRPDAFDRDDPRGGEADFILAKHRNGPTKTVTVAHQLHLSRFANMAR

[8] = system: Vero; experiment: Vero cell cytotoxicity, cytotoxicity control for flavivirus capping enzyme inhibitors (AID 588742); format: functional; settings: Chlorocebus sabaeus
[9] = molecular target: T4, Protein RecA (Mycobacterium tuberculosis, UniProt P9WHJ3); experiment: Fluorescence Cell-Free Homogeneous Dose Retest to Identify Inhibitors of RecA-Intein Splicing Activity. [Related pubchem assays (depositor defined):AID2097, AID2223, AID489010, AID492950]; format: functional
T4 sequence (P9WHJ3 whole entry): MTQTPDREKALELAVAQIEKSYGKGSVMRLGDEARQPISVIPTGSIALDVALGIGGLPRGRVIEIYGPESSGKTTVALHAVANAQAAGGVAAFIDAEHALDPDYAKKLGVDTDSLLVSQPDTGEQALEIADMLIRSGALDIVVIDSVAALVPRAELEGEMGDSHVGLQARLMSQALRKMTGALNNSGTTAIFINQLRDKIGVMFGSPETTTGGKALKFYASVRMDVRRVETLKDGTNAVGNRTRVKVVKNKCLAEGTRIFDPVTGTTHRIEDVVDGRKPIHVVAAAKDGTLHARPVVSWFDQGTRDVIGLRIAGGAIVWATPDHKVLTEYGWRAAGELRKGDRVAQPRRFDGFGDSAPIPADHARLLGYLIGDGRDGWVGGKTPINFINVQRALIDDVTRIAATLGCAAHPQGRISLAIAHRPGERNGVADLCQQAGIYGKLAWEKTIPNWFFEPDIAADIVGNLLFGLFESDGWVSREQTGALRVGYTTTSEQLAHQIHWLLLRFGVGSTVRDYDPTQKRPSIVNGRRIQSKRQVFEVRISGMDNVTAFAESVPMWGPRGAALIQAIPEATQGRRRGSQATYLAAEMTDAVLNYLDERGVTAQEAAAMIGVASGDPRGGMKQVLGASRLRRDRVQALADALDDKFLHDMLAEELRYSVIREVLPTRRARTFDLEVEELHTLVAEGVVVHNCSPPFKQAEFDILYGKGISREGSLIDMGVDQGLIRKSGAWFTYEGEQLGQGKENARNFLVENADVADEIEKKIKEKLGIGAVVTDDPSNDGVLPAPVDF

[10] = molecular target: Genome polyprotein (dengue virus type 2, UniProt P29990); experiment: Dengue-2 NS5 methyltransferase inhibitors, primary screen, biochemical, confirmation dose response (AID 588689); format: functional
[11] = molecular target: Protein Tat (Human immunodeficiency virus type 1 group M subtype B (isolate HXB2)(HIV-1), UniProt P04608); format: functional;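 further: tat binding to TAR RNA read out by fluorescence polarization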
[12] = THP-1 cell cytotoxicity, dose response, cytotoxicity control for Vif-APOBEC3G degradation inhibitor project, THP-1 cells (AID 1117359); format: functional; settings: Human immunodeficiency virus 1, THP-1
[13] = molecular target: Glutathione-S-transferase (Schistosoma japonicum, UniProt Q26513); experiment: biotin-GST/anti-GST TR-FRET signal inhibitors, dose response, artefact control for Vif-APOBEC3G degradation inhibitor project, biochemical (AID 1117362); format: functional
[14] = system: Streptococcus sp. 'group A'; experiment: growth inhibition of control SK(-) GAS strain, dose response, counter-screen for streptokinase expression inhibitor project, luminescence, kanamycin, BacTiterGlo, confirmation (AID 1900); format: functional, organism-based
[15] = molecular target: T5, Heat shock factor protein 1 (Mus musculus, UniProt P38532); experiment: inhibition of MG132-induced HSE-luciferase signal, confirmation, cell-based, NIH3T3, luminescence, dose retest (AID 2382); format: functional;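 further: NIH3T3 fibroblasts with HSF1-driven luciferase reporter stressed by proteasome inhibitor MG132; luminescence from HSF1-driven luciferase expression after 8 hours of MG132 stress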
T5 sequence (P38532 whole entry): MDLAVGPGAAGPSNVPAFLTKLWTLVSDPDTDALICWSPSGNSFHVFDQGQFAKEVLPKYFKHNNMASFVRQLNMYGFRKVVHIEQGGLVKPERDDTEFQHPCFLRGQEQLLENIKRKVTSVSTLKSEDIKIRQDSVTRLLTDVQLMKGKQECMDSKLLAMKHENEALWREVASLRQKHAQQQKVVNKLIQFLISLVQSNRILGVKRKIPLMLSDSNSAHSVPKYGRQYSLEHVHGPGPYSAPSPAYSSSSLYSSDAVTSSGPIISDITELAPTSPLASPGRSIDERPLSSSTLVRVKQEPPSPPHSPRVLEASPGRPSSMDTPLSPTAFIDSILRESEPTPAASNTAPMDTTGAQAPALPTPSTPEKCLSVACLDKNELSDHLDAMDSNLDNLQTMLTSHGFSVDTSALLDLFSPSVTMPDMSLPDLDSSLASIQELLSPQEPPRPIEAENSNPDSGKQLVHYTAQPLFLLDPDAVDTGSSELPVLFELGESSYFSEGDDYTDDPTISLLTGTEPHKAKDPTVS

[16] = molecular target: T6, Streptokinase A (Streptococcus pyogenes serotype M1, UniProt P10520); experiment: S. pyogenes streptokinase expression inhibitors, potency, dose response, plasminogen activation absorbance, OD405 (AID 1914); format: functional, Streptococcus pyogenes M1 GAS;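 further: secreted streptokinase activity via plasminogen activation per viability signal from cell pellet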
T6 sequence (P10520 whole entry): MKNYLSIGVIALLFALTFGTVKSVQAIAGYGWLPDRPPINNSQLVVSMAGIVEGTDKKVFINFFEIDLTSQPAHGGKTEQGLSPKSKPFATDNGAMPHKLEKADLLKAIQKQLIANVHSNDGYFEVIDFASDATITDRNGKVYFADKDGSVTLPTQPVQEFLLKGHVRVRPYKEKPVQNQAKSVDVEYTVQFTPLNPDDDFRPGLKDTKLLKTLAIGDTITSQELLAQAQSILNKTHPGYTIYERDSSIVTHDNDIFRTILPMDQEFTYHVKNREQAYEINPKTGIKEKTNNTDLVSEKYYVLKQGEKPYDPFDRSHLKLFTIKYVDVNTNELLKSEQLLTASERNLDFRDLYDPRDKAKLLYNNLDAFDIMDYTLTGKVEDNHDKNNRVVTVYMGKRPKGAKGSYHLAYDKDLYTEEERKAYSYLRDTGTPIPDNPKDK

[17] = system: Streptococcus; experiment: Group A Streptococcus viability loss, dose response, counter-screen for streptokinase expression inhibitor project, luminescence, BacTiterGlo (AID 1915); format: functional, organism-based;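 further: potency for reduction of bacterial viability or growth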
[18] = Vero cell cytotoxicity, dose response, cytotoxicity control for Vif-APOBEC3G degradation inhibitor project, Vero cells (AID 1117358); format: functional; settings: Human immunodeficiency virus 1, Vero
[19] = inhibitors of Vif binding to APOBEC3G peptide, primary screen, biochemical, TR-FRET, GST-Vif 1-94, biotin-A3G peptide, dose response retest (AID 1117319); format: functional;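 further: TR-FRET signal of purified GST-Vif binding a biotinylated A3G peptide; inhibitors lower the FRET signal by blocking Vif and A3G binding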
[20] = inhibitors of triacylglycerol buildup in H9c2 cells, dose response, cell-based, H9c2 rat cardiomyoblasts, Nile Red fluorescence, primary readout (AID 743161); format: functional
[21] = half-maximal inhibitory concentration for glucagon-like peptide-1 release, STC-1 cell line, dose-response (AID 1117345); format: functional, cell-based
[22] = Glucagon-like peptide 1 release potency, NCI-H716 cell line, dose-response, half-maximal inhibitory concentration (AID 1117344); format: functional, cell-based

Genome polyprotein, sequence (P29990 2492-3391 limits assumed): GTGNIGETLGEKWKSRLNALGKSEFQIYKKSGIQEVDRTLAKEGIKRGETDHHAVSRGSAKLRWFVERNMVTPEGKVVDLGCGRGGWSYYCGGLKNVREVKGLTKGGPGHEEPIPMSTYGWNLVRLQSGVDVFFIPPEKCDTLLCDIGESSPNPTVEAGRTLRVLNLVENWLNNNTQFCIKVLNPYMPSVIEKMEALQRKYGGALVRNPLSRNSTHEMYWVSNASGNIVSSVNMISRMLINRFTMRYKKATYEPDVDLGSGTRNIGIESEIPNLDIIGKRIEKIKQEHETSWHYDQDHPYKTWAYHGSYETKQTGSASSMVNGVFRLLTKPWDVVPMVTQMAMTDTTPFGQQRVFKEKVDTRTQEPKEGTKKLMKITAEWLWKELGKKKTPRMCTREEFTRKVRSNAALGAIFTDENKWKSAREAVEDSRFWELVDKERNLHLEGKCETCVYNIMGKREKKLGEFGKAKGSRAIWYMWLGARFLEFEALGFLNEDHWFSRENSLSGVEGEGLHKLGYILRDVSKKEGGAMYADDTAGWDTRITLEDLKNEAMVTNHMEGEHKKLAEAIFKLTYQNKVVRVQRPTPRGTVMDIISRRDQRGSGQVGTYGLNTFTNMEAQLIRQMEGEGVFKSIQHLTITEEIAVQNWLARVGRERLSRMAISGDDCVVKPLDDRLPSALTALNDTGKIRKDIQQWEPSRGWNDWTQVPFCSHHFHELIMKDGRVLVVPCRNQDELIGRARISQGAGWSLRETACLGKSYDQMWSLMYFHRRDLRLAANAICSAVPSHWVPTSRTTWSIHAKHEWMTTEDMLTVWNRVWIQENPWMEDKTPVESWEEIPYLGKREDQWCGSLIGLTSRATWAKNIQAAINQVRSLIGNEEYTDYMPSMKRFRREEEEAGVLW
Protein Tat, sequence (P04608 whole entry): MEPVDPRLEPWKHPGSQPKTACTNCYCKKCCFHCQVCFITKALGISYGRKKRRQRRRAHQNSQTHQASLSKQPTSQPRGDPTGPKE
Glutathione-S-transferase, sequence (Q26513 whole entry): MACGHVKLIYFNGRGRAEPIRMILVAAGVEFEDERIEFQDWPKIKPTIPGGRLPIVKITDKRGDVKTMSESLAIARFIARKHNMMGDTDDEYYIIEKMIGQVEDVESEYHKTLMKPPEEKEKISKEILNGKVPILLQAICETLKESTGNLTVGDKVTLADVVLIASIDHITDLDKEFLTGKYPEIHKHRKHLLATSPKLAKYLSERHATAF

O=C1C=C(Nc2cccc3cccnc23)c2ccccc2C1=O
EC50 [1]: 47.6 µM (active) | EC50 [2]: 1.57 µM (inconclusive) | EC50 [3]: 28.7 µM (active) | EC50 [4]: 3.05 µM (active) | EC50 [5]: 6.37 µM (inconclusive) | EC50 [6]: 2.77 µM (inconclusive) | AC50 [7]: > 380 µM (inactive) | CC50 [8]: 4.45 µM (active) | EC50 [9]: 2.89 µM (active) | IC50 [10]: 50.4 µM (active) | IC50 [11]: > 100 µM (active) | CC50 [12]: 0.34 µM (active) | IC50 [13]: > 100 µM (active)

O=C(NC(=S)N1CCN(c2c(Cl)cccc2[N+](=O)[O-])CC1)c1cccs1
EC50 [14]: 4.51 µM (active) | EC50 [15]: > 195 µM (not active) | EC50 [16]: > 150 µM (not active) | EC50 [17]: 10.2 µM (active) | CC50 [18]: > 40 µM (active)

COc1cc(O)oc1/C=N/c1ccccc1
IC50 [19]: > 100 µM (active)

COCCN1Cc2cccc(C(=O)NCc3cccc(N(C)C)c3)c2C1=O
IC50 [20]: > 50 µM (active)

CCN(CC)CCOC(=O)C(Cc1cccc2ccccc12)CC1CCCO1 (configuration not stated) [NAFRONYL OXALATE]
IC50 [21]: > 40 µM (inactive) | IC50 [22]: > 40 µM (inactive)
